This test relates to HeLa. Kind of test: Compound was evaluated for antiviral activity against Herpes simplex type 1 in HeLa TK- cells at 100 uM concentration. Format: functional, Homo sapiens.

For `CSc1cn(O[C@H]2CC(O)[C@@H](CO)O2)c(=O)[nH]c1=O` (stereo not given in full), the Virus titer was determined as 5200000 pfu/ml.

Take `C#CSc1cnc(O)nc1O`: the Virus titer is 37000000 pfu/ml.

`C=CCSc1cn(O[C@H]2CC(O)[C@@H](CO)O2)c(=O)[nH]c1=O` (stereo not given in full) came in with a Virus titer of 5300000 pfu/ml.

Regarding `C=CCSc1cnc(O)nc1O`, the Virus titer is 65000000 pfu/ml.

The compound `O=c1[nH]c(=O)n(O[C@H]2CC(O)[C@@H](CO)O2)cc1SCCO` (stereo not given in full) returned a Virus titer of 38000000 pfu/ml.

Values taken from ChEMBL document CHEMBL1121587, “Synthesis of some new S-alkylated derivatives of 5-mercapto-2'-deoxyuridine as potential antiviral agents” (1980).
